Results published in patent US7872003B2, “Pharmaceutical compounds” (F. Hoffmann-La Roche AG, priority 2005, dated 2011).

Tested on: Caco-2 cells
Assay: Caco-2 permeability
Format: in vitro ADME
Settings: bidirectional Caco-2 assay; values >/=1.0 indicate active cellular efflux
Procedure: (iii) Caco-2 Permeability
Caco-2 cells were seeded onto Millipore Multiscreen plates at 1×10^5 cells/cm^2, and were cultured for 20 days. Assessment of compound permeability was subsequently conducted. The compounds were applied to the apical surface (A) of cell monolayers and compound permeation into the basolateral (B) compartment was measured. This was performed in the reverse direction (B−A) to investigate active transport. A permeability coefficient value, Papp, for each compound, a measure of the rate of permeation of the compound across the membrane, was calculated. Compounds were grouped into low (Papp</=[…]) or high (Papp>/=[…]) absorption potential based on comparison with control compounds with established human absorption.
For assessment of a compound's ability to undergo active efflux, the ratio of basolateral (B) to apical (A) transport compared with A to B was determined. Values of B−A/A−B>/=1.0 indicated the occurrence of active cellular efflux. All of the compounds tested through the Caco-2 permeability screen had Papp values>/=1.0×10^6 cm/s.

`CN1CCN(Cc2cc3nc(-c4cccc(O)c4)nc(N4CCOCC4)c3s2)CC1` [PI540] was tested, and the “B−A/A−B asymmetry index” value was “less than 1.0”.
